Marks after values point to notes of the source that are not given here.
Key:
[1] = Reduction of tretazicar by α-hydroxycarbonyl compounds, HPLC initial rate (Example 8); assay type: physicochemical; details: 10 mM test compound, 100 μM tretazicar, 0.1 M sodium bicarbonate buffer; for Initial Rate of tretazicar reduction, pH 9: pH 9, 37° C.; for Initial Rate of tretazicar reduction, pH 10: pH 10, 37° C.
Method: (§1) The assay was started by addition of 100 μL of 100 mM test compound (compound of formula I) in water to a mixture of tretazicar (100 μM) in 0.1 M sodium bicarbonate buffer, pH 9 or pH 10, to give a final volume of 1 mL. The mixture was incubated at 37° C. and aliquots (10 μL) were taken every 6 min and assayed immediately by HPLC [Partisil 10 SCX (4.2×150 mm) (Whatman, Maidstone, Kent, U.K.] eluted isocratically with 0.13 M sodium phosphate (pH 5) at 1.5 ml/min). The concentration of tretazicar was determined in each sample by reference of the corresponding peak area with an external standard, quantified by absorbance at 325 nm. Initial rates were calculated by curve fitting (FigP, Biosoft, Cambridge, U.K.). Reduction products were identified by retention time relative to an authentic standard.

[2] = Reduction of NADP+ by α-hydroxycarbonyl compounds (Example 7); assay type: physicochemical; details: 1 mM test compound, 200 μM NADP+, pH 10 (1 mM NaHCO3 buffer), over 2 minutes
Method: A 10 μL aliquot of test compound (at a concentration of 100 mM in water) is added to a 200 μM NADP^+ aqueous solution (approximately 990 μL), buffered to pH 10 (1 mM NaHCO3 buffer). The final concentration of the test compound in the assay solution was 1 mM. Reduction of NADP^+ was then monitored by measuring the increase, over the course of 2 minutes, of absorption at 350 nm on a spectrophotometer. Initial rates were recorded as the change in A350 per minute.

[3] = DHA reduction of prodrugs and nitro compounds, HPLC initial rate (Examples 5 and 6); assay type: physicochemical; details: 100 μM compound, 10 mM DHA, 37° C.
Method: The assay mixture contained the compound under test (100 μM) and DHA (10 mM) in a final reaction volume of 1 mL of sodium phosphate buffer (of the required pH). The reaction was started by addition of DHA and the mixture is incubated at 37° C.

[4] = tested on: Chinese Hamster V79 cells; test: Survival of V79 cells, colony forming ability (FIG. 7); assay type: cell-based; details: 10 or 100 μM E09 with 10 mM DHA, 2 hours, pH 7.5, 37° C.
Method: The survival of V79 cells was determined using the following method: • Volumes (1 mL, 2×10^5 cells/mL) of V79 cells in 10 mM phosphate buffer (pH 7.5) containing 140 mM NaCl were incubated at 37° C. and then reagents (as indicated above, at the concentrations stipulated) were added (except for the control experiment). After a 2 hour incubation, the cells were harvested by centrifugation, diluted out serially (4×10-fold) and the cells plated into growth medium and assayed for their colony forming ability after growth for 1 week in a humidified 5% CO2 atmosphere.

[5] = DHA reduction of prodrugs and nitro compounds, HPLC initial rate (Examples 5 and 6); assay type: physicochemical; details: 100 μM compound, 1 mM DHA employed (instead of 10 mM DHA), 37° C.
DNA = details: cited from earlier work
[6] = bioactivated versus non-activated; cited from earlier work
[7] = Chemical activation of tretazicar by DHA in bicarbonate buffer (Example 1); assay type: physicochemical; details: 10 mM DHA, 100 μM tretazicar, 0.1M sodium bicarbonate buffer, 1 ml
Method: as §1, with “DHA” for “test compound (compound of formula I)”, “0.1M” for “0.1 M”, “pH10,” for “pH 10,”, “ml.” for “mL.”, “(42×150” for “(4.2×150”, “mL/min).” for “ml/min).”

[8] = humans, phase I; cited from earlier work

Molecule | Initial Rate of tretazicar reduction, pH 9 [1] | Initial Rate of tretazicar reduction, pH 10 [1] | Rate of NADP+ reduction [2] | Initial Rate, pH 8 [3] | Initial Rate, pH 9 [3] | Initial Rate, pH 10 [3] | INITIAL RATE, 0.1 M PO4, pH7.5 [3] | INITIAL RATE, 0.1 M PO4, pH8 [3] | also measured
O=CC(O)CO (racemic) [D,L-Glyceraldehyde] | 0.53 nmoles/min/mL | 0.62 nmoles/min/mL | 0.015 change in A350 per minute | – | – | – | – | – | –
CC(=O)C(C)O (stereo not shown) [3-hydroxy-2-butanone] | 0.034 nmoles/min/mL | 0.184 nmoles/min/mL | – | – | – | – | – | – | –
O=C(O)c1cc([N+](=O)[O-])c(Cl)c([N+](=O)[O-])c1 [4-chloro-3,5-dinitrobenzoic acid] | – | – | – | 0.195 nmoles/min/mL | 1.293 nmoles/min/mL | 1.727 nmoles/min/mL | – | – | Initial Rate, pH 10.6 [3]: 2.442 nmoles/min/mL
O=[N+]([O-])c1ccc(CO)cc1 [4-nitrobenzyl alcohol] | – | – | – | < 0.01 nmoles/min/mL | < 0.01 nmoles/min/mL | 0.105 nmoles/min/mL | – | – | Initial Rate, pH 10.6 [3]: 0.087 nmoles/min/mL
Cc1cc(Cl)c([N+](=O)[O-])cc1[N+](=O)[O-] [5-chloro-2,4-dinitrotoluene] | – | – | – | 0.132 nmoles/min/mL | 0.499 nmoles/min/mL | 0.690 nmoles/min/mL | – | – | Initial Rate, pH 10.6 [3]: 1.703 nmoles/min/mL
O=CC(O)C(O)CO (stereo not drawn) [D(−)-Erthrose] | < 0.01 nmoles/min/mL | 0.28 nmoles/min/mL | 0.004 change in A350 per minute | – | – | – | – | – | –
O=C(CO)CO [Dihydroxyacetone (dimer), 1,3-dihydroxy-2-propanone] | 0.92 nmoles/min/mL | 0.69 nmoles/min/mL | 0.063 change in A350 per minute | – | – | – | – | – | –
Cn1c(/C=C/CO)c(CO)c2c1C(=O)C=C(N1CC1)C2=O [E09, 3-[5-aziridinyl-4,7-dioxo-3-hydroxymethyl-1-methyl-1H-indol-2-yl]-prop-β-ene-α-ol] | – | – | – | – | – | – | 0.272 nmoles/min/mL | 0.605 nmoles/min/mL | cytotoxic effect (percentage survival of V79 cells) on addition of DHA [4]: greatly enhanced
O=C(CO)[C@H](O)[C@@H](O)CO [L-Xylulose] | < 0.01 nmoles/min/mL | 0.28 nmoles/min/mL | 0.003 change in A350 per minute | – | – | – | – | – | –
Cc1ncc([N+](=O)[O-])n1CCO [Metronidazole, 2-methyl-5-nitro-1H-imidazole-1-ethanol] | – | – | – | 0.369 nmoles/min/mL | 0.890 nmoles/min/mL | 1.239 nmoles/min/mL | 0.131 nmoles/min/mL | 0.369 nmoles/min/mL | Initial Rate, pH 10.6 [3]: 0.807 nmoles/min/mL
COCC(O)Cn1ccnc1[N+](=O)[O-] (stereo not shown) [Misonidazole] | – | – | – | 1.922 nmoles/min/mL | 1.851 nmoles/min/mL | 3.180 nmoles/min/mL | 0.221 nmoles/min/mL | 1.922 nmoles/min/mL | –
CO[C@@]12[C@H](COC(N)=O)C3=C(C(=O)C(C)=C(N)C3=O)N1C[C@@H]1N[C@@H]12 [Mitomycin C] | – | – | – | – | Too fast to measure | – | – | – | INITIAL RATE, 0.1 M PO4, pH8, 1 mM DHA ([5]; pH8): 0.052^a nmoles/min/mL; Initial Rate, pH 8, 1 mM DHA ([5]; pH8): 0.052 nmoles/min/mL; Initial Rate, pH 8.5, 1 mM DHA ([5]; pH 8.5): 0.103 nmoles/min/mL; INITIAL RATE, pH7.5 column, (PBS) ([3]; PBS): 1.524 (PBS) nmoles/min/mL; Initial Rate, pH 7 ([3]; pH 7): 1.019 nmoles/min/mL
NC(=O)N/N=C/c1ccc([N+](=O)[O-])o1 [Nitrofurazone, 2-[(5-nitro-2-furanyl)methylene]hydrazinecarboxamide] | – | – | – | 0.203 nmoles/min/mL | 2.390 nmoles/min/mL | 3.789 nmoles/min/mL | 0.177 nmoles/min/mL | 0.203 nmoles/min/mL | Initial Rate, pH 7.5 [3]: 0.177 nmoles/min/mL; Initial Rate, pH 8.5 [3]: 0.260 nmoles/min/mL
O=[N+]([O-])c1nccn1CC(O)CN1CC1 (stereo not shown) [RSU-1069/RB-1645, 1-(1-aziridinyl)-3-(2-nitro-1-imidazolyl)-2-propanol] | – | – | – | – | – | – | <0.01 nmoles/min/mL | 2.57 nmoles/min/mL | –
Nc1n[n+]([O-])c2ccccc2[n+]1[O-] [Tirapazamine, 3-amino-1,2,4-benzotriazine-1,4-dioxide] | – | – | – | 0.512 nmoles/min/mL | 3.503 nmoles/min/mL | 4.209 nmoles/min/mL | 0.523 nmoles/min/mL | 0.512 nmoles/min/mL | Initial Rate, pH 7.5 [3]: 0.523 nmoles/min/mL; Initial Rate, pH 8.5 [3]: 0.639 nmoles/min/mL
NC(=O)c1cc(N2CC2)c([N+](=O)[O-])cc1[N+](=O)[O-] [Tretazicar, 5-(aziridin-1-yl)-2,4-dinitrobenzamide] | – | – | – | 0.158 nmoles/min/mL | 0.933 nmoles/min/mL | 1.248 nmoles/min/mL | <0.01 nmoles/min/mL | 0.158 nmoles/min/mL | increase in the amount of DNA-bound drug (DNA; Walker cells compared to cells which cannot reduce tretazicar (Friedlos et al, 1992)): 10 fold; interstrand crosslinks as share of total lesions / total DNA reactions (DNA; literature values (Friedlos et al, 1992; Knox et al, 1986)): up to 70%; Initial Rate, pH 10.6 [3]: 5.801 nmoles/min/mL; dose modification resulting from bioactivation (increase in cytotoxicity) [6]: up to 100,000 fold; rate of tretazicar reduction by DHA at pH 9 ([7]; pH 9, 37° C.): 0.92 nmol/min; rate of tretazicar reduction by DHA at pH 10 ([7]; pH 10, 37° C.): 0.69 nmol/min; MTD [8]: 37.5 mg/m^2; dose safely administered without any significant toxicity [8]: up to 24 mg/m^2
Glycolaldehyde [Glycolaldehyde dimer] | 0.18 nmoles/min/mL | 0.14 nmoles/min/mL | 0.029 change in A350 per minute | – | – | – | – | – | –
Hydroxyacetone [Hydroxyacetone (acetol)] | – | – | 0.003 change in A350 per minute | – | – | – | – | – | –

Reference: patent US10398676B2, “Use of alpha-hydroxy carbonyl compounds as reducing agents” (Morvus Technology Ltd, priority 2005, dated 2019)
